Test results published in patent publication US12331121B2, “Efflux pump-cancer antigen multi-specific antibodies and compositions, reagents, kits and methods related thereto” (William Robert Arathoon Living Trust Dated August 29, 2016, priority 2019, dated 2025).

Columns and labels:
[1] = system: naïve 293T cells; assay: Enhanced cell killing (chemosensitization) of naïve 293T cells with chemotherapeutic titration; assay type: cell-based, human
Experimental: (§1) HEK 293T, MCF-7, N6ADR and SKNF7 cell lines expressing Pgp were obtained from the American Type Culture Collection. N6/ADR cells is also referred to as NALM6/ADR cells. All cell lines and lines derived from them were maintained in RPMI 1640 or DMEM supplemented with up to 10% fetal bovine serum (Sigma), nonessential amino acids, and 2 mmol/L L-glutamine at 37° C. and 5% CO2 in a humidified incubator (unless otherwise indicated). Cells were used as supplied or were modified to overexpress (Ox) Pgp or were subject to having Pgp expression knocked down (KD) with lentiviral-mediated short hairpin RNA or knock out (KO) of the functional CD47 gene by CRISPR/Cas-mediated knock out technology essentially as described (Cong, L. et al. (2013) Science 339, 819-823). For vincristine and paclitaxel IC50 determination, cells were plated in normal growth medium and allowed to adhere overnight. Paclitaxel or vincristine (Sigma) were added in a dilution series and any modulators were added within ranges of 0 to 500 μM/L. Cell viability was measured 72 h later using the Celltiter-Glo Luminescent Cell Viability Assay (Promega).
FIG. 8 provides comparisons of binding and enhanced cell killing by different bispecific antibodies (with various humanized or chimerized heavy or light chain combinations). […] Columns 5-8 (“Binding (293)”, “Binding (293 KO CD47)”, Binding (293 KO CD47, OX ABCB1)”, and “Binding (293 OX ABCB1)”) provide FACS mean fluorescence intensities of antibodies binding to the indicated cell lines compared with non-binding control antibodies: “−”=˜zero, “±”=0 to ˜0.5 Log shift, “+”=˜1 Log shift, “++”=1→2 Log shift (see FIG. 3A for examples of non-binding controls and binding antibodies).

[2] = system: NALM6 ADR cells
Text: Cells: NALM6 (ATCC) and NALM6 ADR (ATCC), B cell precursor lymphoblastic leukemia cell lines used in this study. NALM6 ADR is a multidrug resistant cell line derived from NALM6 cells.
Mice: Sixty-five 5-6-weeks-old female SCID-Beige mice (Charles River) were used in this study.
Inoculation-2×10^6 cells diluted in PBS:Matrigel (1:1) were subcutaneously injected using a 27G insulin syringe into fifty anesthetized 5-6-week-old female SCID-Beige mice under sterile conditions.
NALM6 ADR subcutaneous tumors: Mice were randomized into nine groups of five mice each—(i) Control isotype IgG1 15 mg/kg, (ii) Control isotype IgG1 15 mg/kg and 5 mg/kg of paclitaxel, (iii) Control isotype IgG1 15 mg/kg and 20 mg/kg of paclitaxel, (iv) BisP1.1 15 mg/kg, (v) BisP1.1 15 mg/kg and 5 mg/kg of paclitaxel, (vi) BisP1.1 15 mg/kg and 20 mg/kg of paclitaxel (vii) Valspodar 20 mg/kg (viii) Valspodar 20 mg/kg and 5 mg/kg of paclitaxel and (ix) Valspodar 20 mg/kg and […]. Antibody, Valspodar and paclitaxel were dosed intraperitoneally twice a week for four consecutive weeks. Antibody/valspodar were injected at least 4 hours prior to paclitaxel injection. Paclitaxel preparation: Since paclitaxel is poorly soluble, a master stock of 50 mg/ml was prepared in absolute ethanol:Kolliphor (1:1). Prior to injection the stock was diluted to recommended doses of 5 mg/kg or 20 mg/kg with PBS maintaining a ratio of (1:16).
Measurements: Tumor measurements were done thrice a week using a calibrated Vernier Caliper and tumor volume calculated as per the formula ½*L*S*S where L is the long axis and s is the short axis of the tumor. Body weights were recorded before treatment started and were continuously monitored throughout the study. Animal survival was evaluated from the first day of treatment until death. To avoid suffering, mice were euthanized when turning moribund according to the above-mentioned predefined criteria: rapid weight loss, loss of ability to ambulate, labored respiration, or inability to drink or feed.
Statistics: Tumor volume and body weights were compared between different experimental groups using exact one-way analysis of variance (ANOVA). Kaplan-Meier survival curves were compared between different treatment groups using the log-rank (Mantel-Cox) test. Statistical analyses were performed using Graph Pad Prism (GraphPad, San Diego, CA, USA) software. The level of significance was set at p<0.05 for all analyses.

[3] = system: HeyT30 cells; assay: HeyT30 tumors in mice; assay type: in vivo; settings: FIG. 19
Text: The BisP1.1 bispecific antibody was efficacious against two additional multidrug resistant (MDR) cancer cell lines in xenograft studies. The A2780ADR MDR cancer cell line expresses both CD47 and ABCB1. The HeyT30 MDR cancer cell line also expresses both CD47 and ABCB1 but at a lower level compared to A2780ADR cells (FIGS. 16 and 17). Both the A2780ADR and the HeyT30 cell lines are of ovarian origin. PE-conjugated, commercially available anti-MDR1 and anti-CD47 reagent antibodies were used; for MDR1, Biolegend Cat. No. 348606 and, CD47, Biolegend Cat. No. 323108.
A2780ADR MDR cancer cell line and HeyT30 MDR cancer cell line were injected into mice according to protocols described in Example 3. Mice were treated with BisP1.1 bispecific antibody with or without paclitaxel.

[4] = system: N6ADR cells; assay: Paclitaxel sensitization of N6ADR cells in vitro; assay type: cell-based, human; settings: FIG. 5, 6; compared to chemo only
Experimental: as §1
FIG. 5 and FIG. 6A-6C illustrate the enhanced killing of cells, by the antineoplastic agent paclitaxel, when cells are bound by the 15D3.aCD47:MRK16 bispecific antibody (highlighted with arrows).

KBisP1.1: bispecific anti-MDR1/anti-CD47 antibody: 15D3 heavy chain, 5F9 (KT14) heavy chain, common MRK16 light chain, human IgG1
sensitivity of naïve 293T cells to paclitaxel ([1]; FIG. 5, 6, compared to chemo only): enhanced | in vitro killing of naïve 293T with vincristine ([1]; antibody 25 nM, compared to vincristine alone, FIG. 7): enhanced in vitro killing | Killing: enhanced 293 naïve cell-killing (sensitization) ([1]; paclitaxel titration, FIG. 8): ++ (≥2 Log shift) | tumor growth, agent alone ([2]; 15 mg/kg i.p. twice a week): strong inhibition of tumor growth | tumor growth in combination with paclitaxel ([2]; BisP1.1 15 mg/kg or valspodar 20 mg/kg with paclitaxel 5 or 20 mg/kg): significantly reduced tumor growth | survival ([2]; valspodar with paclitaxel 20 mg/kg, BisP1.1 alone or plus paclitaxel, compared to control): prolonged survival | tumor volume ([3]; higher concentration of the antibody): efficacious with and without paclitaxel | tumor volume ([3]; lower concentration of the antibody): efficacious in reducing HeyT30 MDR cancer cell tumor volume with paclitaxel | sensitivity of N6ADR cells to paclitaxel [4]: enhanced
